{"source": "paper PMC7828231", "about": "“Delphinidin Increases the Sensitivity of Ovarian Cancer Cell Lines to 3-bromopyruvate” (International Journal of Molecular Sciences, 2021)", "key": {"PEO1 cells": {"test_system": "PEO1 cells", "experiment": "Cell migration (scraped area closure)", "format": "cell-based, human", "procedure": "Ovarian cancer cells and human normal fibroblasts were seeded on a 24-well plate at a density of 7 × 10^4/well (PEO1), 6.5 × 10^4/well (SKOV3) and 6 × 10^4/well (MRC-5) in 700 µL of appropriate cell medium and cultured at 37 °C to reach 90–95% confluence. Then, the cells in the middle of the wells were scraped off using sterile pipette tips (100 µL), cell debris was removed by washing with medium containing 2% FBS and the tested compounds diluted with medium containing 2% FBS were added. Images of the scraped area were collected after 12 h and 24 h at 10× objective magnification using an Olympus CKX53 microscope with a U-TV0. 5XC-3 digital microscope camera. The obtained results were analyzed using ImageJ software. The percentage of scraped area closure was estimated as the ratio of area measured after 12- or 24-h incubation and the area at the beginning of the experiment."}, "four OC cell lines": {"test_system": "four OC cell lines", "design": "method as in PMID 26259240", "conditions": "cited from earlier work"}, "[1]": {"test_system": "Multidrug-resistant SKOV3 cells", "design": "method as in PMID 22954696", "conditions": "cited from earlier work"}, "[2]": {"test_system": "not multi-resistant SKOV3 cells", "design": "method as in PMID 22954696", "conditions": "cited from earlier work"}, "NCI H460 cells": {"test_system": "NCI H460 cells", "design": "method as in PMID 15680311", "conditions": "NCI H460, 50–200 µM; cited from earlier work"}, "22Rν1 cells": {"test_system": "22Rν1 cells", "design": "method as in PMID 18948740", "conditions": "cited from earlier work"}, "LoVo cells": {"test_system": "LoVo cells", "design": "method as in PMID 20494645", "conditions": "LoVo parent cell line; cited from earlier work"}, "Caco-2 cells": {"test_system": "Caco-2 cells", "design": "method as in PMID 15016660", "conditions": "Caco-2, 100–200 µM; cited from earlier work"}, "LnCaP cells": {"test_system": "LnCaP cells", "design": "method as in PMID 27462923", "conditions": "starting from a concentration of 50 µM; cited from earlier work"}, "[3]": {"test_system": "LoVo cell subline resistant to adriamycin", "design": "method as in PMID 20494645", "conditions": "cited from earlier work"}, "HeLa cells": {"test_system": "HeLa cells", "design": "method as in PMID 15016660", "conditions": "100–200 µM; cited from earlier work"}, "HCT-116 cells": {"test_system": "HCT-116 cells", "design": "method as in PMID 15680311", "conditions": "HCT-116, 50–200 µM; cited from earlier work"}, "NHF cells": {"test_system": "NHF cells", "design": "method as in PMID 15016660", "conditions": "100–200 µM; cited from earlier work"}, "SF-268 cells": {"test_system": "SF-268 cells", "design": "method as in PMID 15680311", "conditions": "SF-268, 50–200 µM; cited from earlier work"}, "PC3 cell line": {"test_system": "PC3 cell line", "design": "method as in PMID 27462923", "conditions": "PC3, up to 150 µM; cited from earlier work"}, "HCT116 cells": {"test_system": "HCT116 cells", "design": "method as in PMID 18729103", "conditions": "cited from earlier work"}, "A549 cells": {"test_system": "A549 cells", "design": "method as in PMID 24124611", "conditions": "cited from earlier work"}, "SK-MES-1 cells": {"test_system": "SK-MES-1 cells", "design": "method as in PMID 24124611", "conditions": "cited from earlier work"}, "glyoxalase I": {"target": "glyoxalase I", "design": "method as in PMID 20801663", "conditions": "read-out: IC50 for glyoxalase I inhibition; cited from earlier work"}, "MCF-7": {"test_system": "MCF-7", "design": "method as in PMID 15680311", "conditions": "MCF-7, 50–200 µM; cited from earlier work"}, "[4]": {"design": "method as in PMID 17729219", "conditions": "DMEM medium, after 30 min; cited from earlier work"}}, "data": [{"smiles": "O=C(O)C(=O)CBr", "note": "[3-BP, 3-bromopyruvic acid]", "values": [{"measurement": "cell migration", "setting": "PEO1 cells", "value": "significantly inhibited"}, {"measurement": "IC50", "setting": "four OC cell lines", "value": "16 to 84", "unit": "µM"}, {"measurement": "IC50", "setting": "[1]", "value": "22 ± 4", "unit": "µM"}, {"measurement": "IC50", "setting": "[2]", "value": "19 ± 3", "unit": "µM"}]}, {"smiles": "Oc1cc(O)c2cc(O)c(-c3cc(O)c(O)c(O)c3)[o+]c2c1", "note": "[Delphinidin chloride, 3,3′,4′,5,5′,7-hexahydroxyflavylium]", "values": [{"measurement": "viability", "setting": "NCI H460 cells", "value": "did not affect significantly the viability"}, {"measurement": "IC50", "setting": "22Rν1 cells", "value": 90, "unit": "µM"}, {"measurement": "IC50", "setting": "LoVo cells", "value": 38, "unit": "µM"}, {"measurement": "viability", "setting": "Caco-2 cells", "value": "decreased the viability"}, {"measurement": "viability", "setting": "LnCaP cells", "value": "concentration-dependently decreased the viability"}, {"measurement": "IC50", "setting": "[3]", "value": "16 ± 2", "unit": "µM"}, {"measurement": "viability", "setting": "HeLa cells", "value": "decreased the viability"}, {"measurement": "viability", "setting": "HCT-116 cells", "value": "did not affect significantly the viability"}, {"measurement": "viability", "setting": "NHF cells", "value": "decreased the viability"}, {"measurement": "viability", "setting": "SF-268 cells", "value": "did not affect significantly the viability"}, {"measurement": "viability", "setting": "PC3 cell line", "value": "did not affect the viability"}, {"measurement": "IC50", "setting": "HCT116 cells", "value": 110, "unit": "µM"}, {"measurement": "IC50", "setting": "A549 cells", "value": 55, "unit": "µM"}, {"measurement": "IC50", "setting": "SK-MES-1 cells", "value": 44, "unit": "µM"}, {"measurement": "IC50", "setting": "glyoxalase I", "value": 1.9, "unit": "µM"}, {"measurement": "viability", "setting": "MCF-7", "value": "decreased, concentration-dependently, the viability"}, {"measurement": "stability in cell culture medium", "setting": "[4]", "value": "not detectable"}]}]}
